Experiments:
Assay in all cases: relative viability (nuclei count vs DMSO), 5 days (fraction); higher = more cells survive
[1] = system: HARA
Procedure, shortened: (§1)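 Relative viability divides the nuclei count in treated wells by that in vehicle wells. Lung cancer cell lines were seeded in 1536-well plates, dosed by pin tool the next day, and fixed and stained after 5 days in one step with final 0.05% Triton X-100, 1% formaldehyde and 1 ug/ml Hoechst. Dosing was a single drug or a fixed anchor-drug dose plus five library-drug doses (not always all listed) in √10 steps, and values are medians of duplicate plates imaged at 4×.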

[2] = system: HCC-827
Procedure, shortened: as §1

[3] = system: PC-3 [JPC-3]
Procedure, shortened: as §1

[4] = system: HCC-44
Procedure, shortened: as §1

[5] = system: NCI-H2087
Procedure, shortened: as §1

[6] = system: COR-L 105
Procedure, shortened: as §1

[7] = system: LCLC-97TM1
Procedure, shortened: as §1

[8] = system: CAL-12T
Procedure, shortened: as §1

[9] = system: LU99A
Procedure, shortened: as §1

[10] = system: NCI-H1993
Procedure, shortened: as §1

[11] = system: LXF-289
Procedure, shortened: as §1

[12] = system: BEN
Procedure, shortened: as §1

[13] = system: NCI-H2126
Procedure, shortened: as §1

[14] = system: HOP-62
Procedure, shortened: as §1

[15] = system: NCI-H727
Procedure, shortened: as §1

[16] = system: HCC-366
Procedure, shortened: as §1

[17] = system: LC-2-ad
Procedure, shortened: as §1

[18] = system: SK-MES-1
Procedure, shortened: as §1

[19] = system: HCC-15
Procedure, shortened: as §1

[20] = system: COR-L23
Procedure, shortened: as §1

[21] = system: NCI-H2009
Procedure, shortened: as §1

[22] = system: NCI-H2170
Procedure, shortened: as §1

[23] = system: PC-14
Procedure, shortened: as §1

In the case of O=C(O)CCCCC(CCSCc1ccccc1)SCc1ccccc1 (stereo not given) [CPI-613] + CC1(C)CCC(c2ccc(Cl)cc2)=C(CN2CCN(c3ccc(C(=O)NS(=O)(=O)c4ccc(N[C@H](CCN5CCOCC5)CSc5ccccc5)c(S(=O)(=O)C(F)(F)F)c4)cc3)CC2)C1 [Navitoclax] (partner 0.5 µM), the relative viability ([1]; first compound 5 µM) is reported as 1.14, the relative viability ([1]; first compound 15.81 µM) is reported as 1.13 and the relative viability ([1]; first compound 50 µM) is reported as 1.16. For the same compound, the relative viability ([1]; first compound 158.11 µM) was 0.504, the relative viability ([1]; first compound 500 µM) was 0.0371 and the relative viability ([2]; first compound 5 µM) was 0.983. The relative viability ([2]; first compound 15.81 µM) was 0.96, the relative viability ([2]; first compound 50 µM) was 0.877 and the relative viability ([2]; first compound 158.11 µM) was 0.414. The relative viability ([2]; first compound 500 µM) was 0.065, the relative viability ([3]; first compound 5 µM) was 0.819 and the relative viability ([3]; first compound 15.81 µM) was 0.7. The relative viability ([3]; first compound 50 µM) was 0.696, the relative viability ([3]; first compound 158.11 µM) was 0.448 and the relative viability ([3]; first compound 500 µM) was 0.469. It also gave a relative viability ([4]; first compound 5 µM) of 1.03, a relative viability ([4]; first compound 15.81 µM) of 1.08 and a relative viability ([4]; first compound 50 µM) of 1.07. The relative viability ([4]; first compound 158.11 µM) was 0.322, the relative viability ([4]; first compound 500 µM) was 0.0385 and the relative viability ([5]; first compound 5 µM) was 1.03. It also gave a relative viability ([5]; first compound 15.81 µM) of 0.953, a relative viability ([5]; first compound 50 µM) of 0.926 and a relative viability ([5]; first compound 158.11 µM) of 0.135. The relative viability ([5]; first compound 500 µM) was 0.0127, the relative viability ([6]; first compound 5 µM) was 0.847 and the relative viability ([6]; first compound 15.81 µM) was 0.776. The relative viability ([6]; first compound 50 µM) was 0.719, the relative viability ([6]; first compound 158.11 µM) was 0.297 and the relative viability ([6]; first compound 500 µM) was 0.286. It also gave a relative viability ([7]; first compound 5 µM) of 0.299, a relative viability ([7]; first compound 15.81 µM) of 0.502 and a relative viability ([7]; first compound 50 µM) of 0.658. For the same compound, the relative viability ([7]; first compound 158.11 µM) was 0.079, the relative viability ([7]; first compound 500 µM) was 0.0431 and the relative viability ([8]; first compound 5 µM) was 1.17. The relative viability ([8]; first compound 15.81 µM) was 0.967, the relative viability ([8]; first compound 50 µM) was 0.965 and the relative viability ([8]; first compound 158.11 µM) was 0.0606. The relative viability ([8]; first compound 500 µM) was 0.0373, the relative viability ([9]; first compound 5 µM) was 0.631 and the relative viability ([9]; first compound 15.81 µM) was 0.77. It also gave a relative viability ([9]; first compound 50 µM) of 0.816, a relative viability ([9]; first compound 158.11 µM) of 0.142 and a relative viability ([9]; first compound 500 µM) of 0.0335. It also gave a relative viability ([10]; first compound 5 µM) of 0.917, a relative viability ([10]; first compound 15.81 µM) of 0.917 and a relative viability ([10]; first compound 50 µM) of 1.06. It also gave a relative viability ([10]; first compound 158.11 µM) of 0.64, a relative viability ([10]; first compound 500 µM) of 0.408 and a relative viability ([11]; first compound 5 µM) of 0.898. The relative viability ([11]; first compound 15.81 µM) was 0.894, the relative viability ([11]; first compound 50 µM) was 0.905 and the relative viability ([11]; first compound 158.11 µM) was 0.157. For the same compound, the relative viability ([11]; first compound 500 µM) was 0.0115, the relative viability ([12]; first compound 5 µM) was 0.0595 and the relative viability ([12]; first compound 15.81 µM) was 0.0465. The relative viability ([12]; first compound 50 µM) was 0.0686, the relative viability ([12]; first compound 158.11 µM) was 0.0624 and the relative viability ([12]; first compound 500 µM) was 0.0516. The relative viability ([13]; first compound 5 µM) was 0.9, the relative viability ([13]; first compound 15.81 µM) was 0.805 and the relative viability ([13]; first compound 50 µM) was 0.815. The relative viability ([13]; first compound 158.11 µM) was 0.662, the relative viability ([13]; first compound 500 µM) was 0.645 and the relative viability ([14]; first compound 5 µM) was 0.927. The relative viability ([14]; first compound 15.81 µM) was 0.992, the relative viability ([14]; first compound 50 µM) was 0.978 and the relative viability ([14]; first compound 158.11 µM) was 0.984. The relative viability ([14]; first compound 500 µM) was 0.911, the relative viability ([15]; first compound 5 µM) was 0.386 and the relative viability ([15]; first compound 15.81 µM) was 0.337. The relative viability ([15]; first compound 50 µM) was 0.331, the relative viability ([15]; first compound 158.11 µM) was 0.0645 and the relative viability ([15]; first compound 500 µM) was 0.046. It also gave a relative viability ([16]; first compound 5 µM) of 1.03, a relative viability ([16]; first compound 15.81 µM) of 0.99 and a relative viability ([16]; first compound 50 µM) of 1.1. It also gave a relative viability ([16]; first compound 158.11 µM) of 0.774, a relative viability ([16]; first compound 500 µM) of 0.0086 and a relative viability ([17]; first compound 5 µM) of 0.431. For the same compound, the relative viability ([17]; first compound 15.81 µM) was 0.354, the relative viability ([17]; first compound 50 µM) was 0.297 and the relative viability ([17]; first compound 158.11 µM) was 0.0601. The relative viability ([17]; first compound 500 µM) was 0.0074, the relative viability ([18]; first compound 5 µM) was 1.08 and the relative viability ([18]; first compound 15.81 µM) was 1.17. It also gave a relative viability ([18]; first compound 50 µM) of 1.1, a relative viability ([18]; first compound 158.11 µM) of 1.03 and a relative viability ([18]; first compound 500 µM) of 1. It also gave a relative viability ([19]; first compound 5 µM) of 0.625, a relative viability ([19]; first compound 15.81 µM) of 0.68 and a relative viability ([19]; first compound 50 µM) of 0.612. It also gave a relative viability ([19]; first compound 158.11 µM) of 0.309, a relative viability ([19]; first compound 500 µM) of 0.278 and a relative viability ([20]; first compound 5 µM) of 1.07. It also gave a relative viability ([20]; first compound 15.81 µM) of 0.913, a relative viability ([20]; first compound 50 µM) of 0.987 and a relative viability ([20]; first compound 158.11 µM) of 0.327. For the same compound, the relative viability ([20]; first compound 500 µM) was 0.0196, the relative viability ([21]; first compound 5 µM) was 1.18 and the relative viability ([21]; first compound 15.81 µM) was 1.08. The relative viability ([21]; first compound 50 µM) was 1.11, the relative viability ([21]; first compound 158.11 µM) was 0.264 and the relative viability ([21]; first compound 500 µM) was 0.0303. For the same compound, the relative viability ([22]; first compound 5 µM) was 0.6, the relative viability ([22]; first compound 15.81 µM) was 0.573 and the relative viability ([22]; first compound 50 µM) was 0.593. The relative viability ([22]; first compound 158.11 µM) was 0.396, the relative viability ([22]; first compound 500 µM) was 0.0998 and the relative viability ([23]; first compound 5 µM) was 1. It also gave a relative viability ([23]; first compound 15.81 µM) of 1.05, a relative viability ([23]; first compound 50 µM) of 1 and a relative viability ([23]; first compound 158.11 µM) of 0.869. The relative viability ([23]; first compound 500 µM) was 1.16.
